Earlier results on two molecules are cited in US6312728A, “Sustained release pharmaceutical preparation” (Cascade Development, Inc., priority 1999, dated 2001).

Like-named read-outs stand apart in the source and are kept apart here. Some results are limits rather than exact numbers.

For data set [1] the following is noted: patients.
The conditions of data set [2]: intravenous administration.
For data set [3] the following is noted: in vivo.

For the molecule `O=C1NC(=O)C(c2ccccc2)(c2ccccc2)N1` [phenytoin sodium], the solubility in water result is “much more soluble”.

What is called half-life is how long it takes for the measured level to halve. As for `O=C1NC(=O)C(c2ccccc2)(c2ccccc2)N1` [phenytoin, 5,5-diphenyl-2,4-imidazolidinedione], the solubility in water entry is “poor solubility in water”. Further, the “bioavailability following oral administration” value in data set [1] is “great variations in bioavailability”. In addition, under “listed as free-phenytoin”, the solubility in water entry is given as “practically insoluble in water”. Also, in data set [2], the serious adverse effects result was “serious adverse effects, including cardiac arrhythmias and hypotensioni”. In addition, in data set [3], the half-life was greater than 6 h.
